The record followed here is patent publication EP0966464B1, “SUBSTITUTED 2,4-DIAMINOPYRIMIDINES” (priority 1997, dated 1998).

What all share (assay): Inhibition of purified bacterial dihydrofolate reductase (method of Baccanari and Joyner)
Common to all, as to format: biochemical

In assay [1] the target is purified DHFR of the reference strain S. aureus ATCC 25923 (Staphylococcus aureus, UniProt P0A017). The source says:
(§1) The inhibition of this enzyme was taken as a measurement of the antibacterial activity.

The target of assay [2] is purified DHFR of the multiresistant strain S. aureus 157/4696 (Staphylococcus aureus, UniProt P0A017). The conditions noted are these: read-out: IC50 values S.aureus 157/4696, IC50 determined by means of a graph.
From the text: as §1

In assay [3] the target is T1, purified DHFR of the multiresistant strain Streptococcus pneumoniae 1/1 (Streptococcus pneumoniae serotype 4, UniProt Q54801).
T1 sequence (Q54801 1-168): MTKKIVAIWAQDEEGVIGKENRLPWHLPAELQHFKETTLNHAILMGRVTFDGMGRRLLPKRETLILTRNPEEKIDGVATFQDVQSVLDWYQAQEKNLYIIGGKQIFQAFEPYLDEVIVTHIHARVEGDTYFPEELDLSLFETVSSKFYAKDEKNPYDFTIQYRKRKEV
The conditions noted are these: read-out: IC50 values S.pneumoniae 1/1, IC50 determined by means of a graph.
From the text: as §1

pIC50: −log10 of the molar value.

`COc1cc(Cc2cnc(N)nc2N)cc(/C=C/C(=O)N2N=Cc3ccccc3C2c2ccccc2)c1OC` (racemic) [A, (E)-(RS)-3-[5-(2,4-Diamino-pyrimidin-5-ylmethyl)-2,3-dimethoxyphenyl]-1-(1-phenyl-1H-phthalazin-2-yl)-propenone]: the figures for the pIC50 in assay [1], in assay [2] and in assay [3] were 8.70, 8.70 and 7.92, respectively.
Regarding `COc1cc(Cc2cnc(N)nc2N)cc(/C=C/C(=O)N2N=Cc3ccccc3C2c2ccco2)c1OC` (racemic) [B, (E)-(RS)-3-[5-(2,4-Diamino-pyrimidin-5-ylmethyl)-2,3-dimethoxyphenyl]-1-(1-furan-2-yl-1H-phthalazin-2-yl)-propenone], the pIC50 in assay [1] was 8.70; in assay [2] it was 8.10; in assay [3], 7.66.
As to `COc1cc(Cc2cnc(N)nc2N)cc(/C=C/C(=O)N2N=Cc3ccccc3C2c2ccc(CO)cc2)c1OC` (racemic) [C, (E)-(RS)-3-[5-(2,4-Diamino-pyrimidin-5-ylmethyl)-2,3-dimethoxyphenyl]-1-[1-(4-hydroxymethyl-phenyl)-1H-phthalazin-2-yl]-propenone], the pIC50 in assay [1] was 9.00; in assay [2], 9.00; in assay [3] it was 8.70.
Turning to `COc1cc(Cc2cnc(N)nc2N)cc(/C=C/C(=O)N2N=Cc3ccccc3C2c2ccc(O)cc2)c1OC` (racemic) [D, (E)-(RS)-3-[5-(2,4-Diamino-pyrimidin-5-ylmethyl)-2,3-dimethoxyphenyl]-1-[1-(4-hydroxy-phenyl)-1H-phthalazin-2-yl]-propenone], the figures for the pIC50 in assay [1], in assay [2] and in assay [3] were 8.70, 8.52 and 8.05, respectively.
As to `CCC1c2ccccc2C=NN1C(=O)/C=C/c1cc(Cc2cnc(N)nc2N)cc(OC)c1OC` (racemic) [E, (E)-(RS)-3-[5-(2,4-Diamino-pyrimidin-5-ylmethyl)-2,3-dimethoxyphenyl]-1-(1-ethyl-1H-phthalazin-2-yl)-propenone], the pIC50 in assay [1] is 8.70; in assay [2] it was 7.92; in assay [3], 7.74.
As to `COc1cc(Cc2cnc(N)nc2N)cc(/C=C/C(=O)N2N=Cc3ccccc3C2CCCCO)c1OC` (racemic) [F, (E)-(RS)-3-[5-(2,4-Diamino-pyrimidin-5-ylmethyl)-2,3-dimethoxyphenyl]-1-[1-(4-hydroxy-butyl)-1H-phthalazin-2-yl]-propenone], the pIC50 in assay [1] was 9.00; in assay [2] it was 8.52; in assay [3], 8.05.
In the case of `CCCC1c2ccccc2C=NN1C(=O)/C=C/c1cc(Cc2cnc(N)nc2N)cc(OC)c1OC` (racemic) [G, (E)-(RS)-3-{5-(2,4-Diamino-pyrimidin-5-ylmethyl)-2,3-dimethoxyphenyl}-1-(1-propyl-1H-phthalazin-2-yl)-propenone], the pIC50 was 8.70 in assay [1], 8.22 in assay [2] and 8.30 in assay [3].
Turning to `COc1cc(Cc2cnc(N)nc2N)cc(/C=C/C(=O)N2N=Cc3ccccc3C2c2ccc(C)nc2)c1OC` (racemic) [I, (E)-(RS)-3-[5-(2,4-Diamino-pyrimidin-5-ylmethyl)-2,3-dimethoxyphenyl)-1-[1-(6-methyl-pyridin-3-yl)-1H-phthalazin-2-yl]-propenone], the pIC50 in assay [1], in assay [2] and in assay [3] was 9.40 throughout.
In the case of `CCc1ccc(C2c3ccccc3C=NN2C(=O)/C=C/c2cc(Cc3cnc(N)nc3N)cc(OC)c2OC)cn1` (racemic) [J, (E)-(RS)-3-[5-(2,4-Diamino-pyrimidin-5-ylmethyl)-2,3-dimethoxyphenyl]-1-[1-(6-ethyl-pyridin-3-yl)-1H-phthalazin-2-yl]-propenone], the pIC50 is 9.52 in assay [1], 9.70 in assay [2] and 8.82 in assay [3].
Turning to `COc1cc(Cc2cnc(N)nc2N)cc(/C=C/C(=O)N2N=Cc3ccccc3C2c2cnc(C)nc2)c1OC` (racemic) [K, (E)-(RS)-3-[5-(2,4-Diamino-pyrimidin-5-ylmethyl)-2,3-dimethoxyphenyl]-1-[1-(2-methyl-pyrimidin-5-yl)-1H-phthalazin-2-yl]-propenone], the pIC50 in assay [1] is 9.22; in assay [2], 9.22; in assay [3], 8.60.
Consider `COc1cc(Cc2cnc(N)nc2N)cc(/C=C/C(=O)N2N=Cc3ccccc3[C@@H]2c2ccc(C)nc2)c1OC` [H, (E)-(R)-3-[5-(2,4-Diamino-pyrimidin-5-ylmethyl)-2,3-dimethoxy-phenyl]-1-[1-(6-methyl-pyridin-3-yl)-1H-phthalazin-2-yl]-propenone], for which the pIC50 in assay [1] was 9.52; in assay [2], 9.40; in assay [3], 8.92.
